What follows are compounds tested against Interleukin-1 receptor-associated kinase 1 (Homo sapiens, UniProt P51617) (assay: Inhibition of IRAK1). Conditions: not given.
Interleukin-1 receptor-associated kinase 1, sequence (P51617 whole entry): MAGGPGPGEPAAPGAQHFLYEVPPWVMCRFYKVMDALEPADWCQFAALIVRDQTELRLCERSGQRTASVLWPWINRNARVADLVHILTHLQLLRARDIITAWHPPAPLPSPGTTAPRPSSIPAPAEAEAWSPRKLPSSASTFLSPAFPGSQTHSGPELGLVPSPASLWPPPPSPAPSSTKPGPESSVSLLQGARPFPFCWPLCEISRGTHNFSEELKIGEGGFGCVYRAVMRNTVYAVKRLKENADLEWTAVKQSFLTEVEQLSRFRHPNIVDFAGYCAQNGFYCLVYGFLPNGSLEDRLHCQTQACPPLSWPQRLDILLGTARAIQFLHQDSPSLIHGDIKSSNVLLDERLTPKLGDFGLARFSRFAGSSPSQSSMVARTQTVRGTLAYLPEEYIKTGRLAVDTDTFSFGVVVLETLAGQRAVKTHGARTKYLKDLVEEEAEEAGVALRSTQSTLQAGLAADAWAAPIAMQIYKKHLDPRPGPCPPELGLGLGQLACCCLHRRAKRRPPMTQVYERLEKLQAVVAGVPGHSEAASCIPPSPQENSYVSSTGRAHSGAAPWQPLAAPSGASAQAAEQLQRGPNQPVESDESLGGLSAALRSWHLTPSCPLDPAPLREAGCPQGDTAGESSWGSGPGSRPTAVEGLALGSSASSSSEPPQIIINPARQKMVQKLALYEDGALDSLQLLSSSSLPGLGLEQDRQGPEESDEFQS

Compound	IC50
CCOC(=O)Cn1c(NC(=O)c2cccc([N+](=O)[O-])c2)nc2ccccc21	0.75 µM
O=C(Nc1nc2ccccc2n1CCN1CCOCC1)c1cccc([N+](=O)[O-])c1	0.3 µM

These compounds were tested on HeLa (assay: Antiproliferative activity against human HeLa cell line after 72 hrs). Conditions: read-out: ED50 (the source's name).
Type: functional

Compound	EC50
CCOC(=O)Cn1c(NC(=O)c2cccc([N+](=O)[O-])c2)nc2ccccc21	> 30 µM
O=C(Nc1nc2ccccc2n1CCN1CCOCC1)c1cccc([N+](=O)[O-])c1	> 30 µM

Each compound was assayed against T1, Interleukin-1 receptor-associated kinase 4 (Homo sapiens, UniProt Q9NWZ3) (assay: Inhibition of IRAK4). Conditions: not given.
T1 sequence (Q9NWZ3 whole entry): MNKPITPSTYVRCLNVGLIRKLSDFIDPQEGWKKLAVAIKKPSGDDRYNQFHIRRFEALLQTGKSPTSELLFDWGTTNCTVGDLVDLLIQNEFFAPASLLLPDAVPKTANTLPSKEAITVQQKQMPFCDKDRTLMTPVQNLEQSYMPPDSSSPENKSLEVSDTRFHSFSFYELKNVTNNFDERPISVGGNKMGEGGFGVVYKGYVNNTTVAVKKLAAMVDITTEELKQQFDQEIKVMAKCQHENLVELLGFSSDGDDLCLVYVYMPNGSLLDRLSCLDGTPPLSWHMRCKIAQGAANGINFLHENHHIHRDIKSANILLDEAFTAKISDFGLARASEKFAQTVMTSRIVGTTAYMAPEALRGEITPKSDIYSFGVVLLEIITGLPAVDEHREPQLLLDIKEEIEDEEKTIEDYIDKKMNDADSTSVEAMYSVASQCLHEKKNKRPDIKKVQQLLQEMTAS

Compound	IC50
CCCCn1c(NC(=O)c2ccc(OC)cc2)nc2ccccc21	6.5 µM
CCOC(=O)Cn1c(NC(=O)c2cccc([N+](=O)[O-])c2)nc2ccccc21	0.4 µM
C=CCN(C(=O)c1cccc([N+](=O)[O-])c1)c1nc2ccccc2n1CC=C	> 30 µM
O=C(Nc1nc2ccccc2n1CCN1CCOCC1)c1cccc([N+](=O)[O-])c1	0.2 µM
Cc1ccc(C(=O)Nc2nc3ccccc3[nH]2)cc1[N+](=O)[O-]	12 µM
CCCCCn1c(NC(=O)c2cccc([N+](=O)[O-])c2)nc2ccccc21	20 µM
CCCCn1c(NC(=O)c2cccc(Cl)c2)nc2ccccc21	30 µM
COC(=O)c1ccc2[nH]c(NC(=O)c3cccc([N+](=O)[O-])c3)nc2c1	25 µM
Cc1cc2nc(NC(=O)c3cccc([N+](=O)[O-])c3)[nH]c2cc1C	8 µM
N#Cc1cccc(C(=O)Nc2nc3ccccc3[nH]2)c1	13.6 µM
O=C(Nc1nc2cc(F)c(F)cc2[nH]1)c1cccc([N+](=O)[O-])c1	30 µM
O=C(Nc1nc2cc[nH]cc-2n1)c1cccc([N+](=O)[O-])c1	30 µM
CN(C(=O)c1cccc([N+](=O)[O-])c1)c1nc2ccccc2n1C1CCOC1=O (stereo unspecified)	> 30 µM

Results, then the compound that gave them:

IC50	Compound
6.5 µM	O=C(Nc1nc2ccccc2[nH]1)c1ccc(F)c([N+](=O)[O-])c1
6 µM	O=C(Nc1nc2ccc(Cl)cc2[nH]1)c1cccc([N+](=O)[O-])c1
4.5 µM	O=C(Nc1nc2ccc(F)cc2[nH]1)c1cccc([N+](=O)[O-])c1
4 µM	O=C(Nc1nc2ccccc2[nH]1)c1cccc([N+](=O)[O-])c1
4 µM	CN(C)CCCn1c(NC(=O)c2cccc([N+](=O)[O-])c2)nc2ccccc21
4 µM	CCCS(=O)(=O)c1ccc2[nH]c(NC(=O)c3cccc([N+](=O)[O-])c3)nc2c1
4 µM	O=C(O)CCn1c(NC(=O)c2cccc([N+](=O)[O-])c2)nc2ccccc21
3 µM	CCCCn1c(NC(=O)c2ccc(Cl)c(Cl)c2)nc2ccccc21
3 µM	CCN(CC)CCn1c(NC(=O)c2cccc([N+](=O)[O-])c2)nc2ccccc21
2 µM	CCCCn1c(NC(=O)c2cccc([N+](=O)[O-])c2)nc2ccccc21
2 µM	CCn1c(NC(=O)c2cccc([N+](=O)[O-])c2)nc2ccccc21
2 µM	O=C(Nc1nc2ccccc2n1CCC1CCC1)c1cccc([N+](=O)[O-])c1
2 µM	CCOCCn1c(NC(=O)c2cccc([N+](=O)[O-])c2)nc2ccccc21
1.5 µM	COc1ccc2nc(NC(=O)c3cccc([N+](=O)[O-])c3)[nH]c2c1
1 µM	COCCn1c(NC(=O)c2cccc([N+](=O)[O-])c2)nc2ccccc21
1 µM	C=CCn1c(NC(=O)c2cccc([N+](=O)[O-])c2)nc2ccccc21
1 µM	CC(C)n1c(NC(=O)c2cccc([N+](=O)[O-])c2)nc2ccccc21
1 µM	CCOC(=O)CCn1c(NC(=O)c2cccc([N+](=O)[O-])c2)nc2ccccc21
0.8 µM	Cc1ccc2nc(NC(=O)c3cccc([N+](=O)[O-])c3)[nH]c2c1
0.55 µM	O=C(Nc1nc2ccccc2n1C1CCOC1=O)c1cccc([N+](=O)[O-])c1 (stereo unspecified)
0.5 µM	O=C(Nc1nc2ccccc2n1CC1CCCO1)c1cccc([N+](=O)[O-])c1 (stereo unspecified)
0.4 µM	O=C(Nc1nc2ccccc2n1CCO)c1cccc([N+](=O)[O-])c1

The compounds below were run against T2, Interleukin-1 receptor-associated kinase 4 (Homo sapiens) (UniProt Q9NWZ3) (assay: Inhibition of IRAK4 at 30 uM). Conditions: not given.
T2 sequence (whole entry): T1 sequence (Q9NWZ3 whole entry)

inhibition	Compound
45%	O=[N+]([O-])c1cccc(S(=O)(=O)Nc2nc3ccccc3[nH]2)c1
15%	O=C(Nc1cccc([N+](=O)[O-])c1)Nc1nc2ccccc2[nH]1
39%	O=C(Nc1nc2ccc[nH]c-2n1)c1cccc([N+](=O)[O-])c1
11%	O=C(Nc1nc2ccccc2[nH]1)c1ccccc1
11%	O=C(Nc1nc2ccccc2s1)c1cccc([N+](=O)[O-])c1
8%	O=[N+]([O-])c1cccc(CNc2nc3ccccc3[nH]2)c1
38%	O=C(O)Cn1c(NC(=O)c2cccc([N+](=O)[O-])c2)nc2ccccc21
25%	O=C(Nc1nc2c([N+](=O)[O-])cccc2[nH]1)c1cccc([N+](=O)[O-])c1
8%	CCCCn1c(NC(=O)c2ccc([N+](=O)[O-])cc2)nc2ccccc21
29%	O=C(Nc1nc2cc([N+](=O)[O-])ccc2[nH]1)c1cccc([N+](=O)[O-])c1
10%	O=C(Nc1nc2cc(Cl)c(Cl)cc2[nH]1)c1cccc([N+](=O)[O-])c1
24%	O=C(Nc1nc2c(F)c(F)ccc2[nH]1)c1cccc([N+](=O)[O-])c1

Reference: ChEMBL document CHEMBL1147720, “Discovery and initial SAR of inhibitors of interleukin-1 receptor-associated kinase-4” (Bioorg Med Chem Lett, 2006)
